The record followed here is PubChem BioAssay (NCI).

Among the test systems are NCI-H226 lung; HCT-116 colon; UO-31 renal; SF-295 CNS; SK-MEL-5 melanoma; DU-145 prostate; 786-0 renal; SNB-75 CNS; SF-268 CNS; RPMI-8226 leukemia.
Holding throughout (assay): growth of human tumour cells (NCI), 48 h

The structures appear in SMILES notation.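 Results reflect a 48-hour exposure of cells in 96-well plates to compound at five concentrations. TGI marks complete inhibition of growth.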

As to `CC(=O)N1c2ccccc2Sc2cc(C(O)(C(F)(F)F)C(F)(F)F)ccc21`, the TGI in the experiment on NCI-H226 lung, in the experiment on HCT-116 colon, with UO-31 renal, with SF-295 CNS, with SK-MEL-5 melanoma and in the experiment with DU-145 prostate was more than 10 µM each time. In addition, the TGI in the experiment on 786-0 renal, in the experiment with SNB-75 CNS and in the experiment on SF-268 CNS was more than 10 µM in each case.

Turning to `COC(=O)c1ccc(N=NN(C)CO)cc1`, the TGI with NCI-H226 lung, with HCT-116 colon, in the experiment on UO-31 renal, in the experiment with SF-295 CNS, in the experiment on SK-MEL-5 melanoma and in the experiment with 786-0 renal was more than 100 µM in each case. Moreover, the TGI in the experiment on RPMI-8226 leukemia and with SNB-75 CNS was more than 100 µM each time.

In the case of `O=C1C(=O)N(c2ccc(Cl)c(Cl)c2)C(=O)C(=O)C1c1nc2ccccc2o1`, the TGI in the experiment on NCI-H226 lung is more than 100 µM; in the experiment with HCT-116 colon it was more than 100 µM; in the experiment on UO-31 renal, more than 100 µM; in the experiment with SF-295 CNS it was more than 100 µM; in the experiment on 786-0 renal, more than 100 µM; in the experiment on RPMI-8226 leukemia, 66.5 µM. For the same compound, the TGI with SNB-75 CNS and with SF-268 CNS was more than 100 µM throughout.

Take `COc1ccc2ccc([Se]c3ccc4ccc(OC)cc4c3)cc2c1`: the TGI in the experiment with NCI-H226 lung was more than 100 µM; with HCT-116 colon, more than 100 µM; in the experiment on UO-31 renal, 95.8 µM; in the experiment with SF-295 CNS it was more than 100 µM; with SK-MEL-5 melanoma, more than 100 µM; with 786-0 renal it was more than 100 µM. For the same compound, the TGI was more than 100 µM in the experiment on RPMI-8226 leukemia, 76.8 µM with SNB-75 CNS and more than 100 µM with SF-268 CNS.

Regarding `CCOC(=O)CC1=CSC2=NCCN12`, the TGI with NCI-H226 lung, with HCT-116 colon, in the experiment on UO-31 renal, with SF-295 CNS, in the experiment with SK-MEL-5 melanoma and in the experiment with 786-0 renal was more than 100 µM in each case. Also, the TGI in the experiment on SNB-75 CNS and in the experiment with SF-268 CNS was more than 100 µM throughout.

For `O=C(O)C12C3CCCC1C2CC3` (stereo unspecified), the TGI in the experiment with NCI-H226 lung, in the experiment on HCT-116 colon, with UO-31 renal, with SF-295 CNS, in the experiment on SK-MEL-5 melanoma and in the experiment on 786-0 renal was more than 100 µM each time. Further, the TGI with RPMI-8226 leukemia, with SNB-75 CNS and in the experiment on SF-268 CNS was more than 100 µM throughout.

Turning to `CC1NOC(=O)C1N=Nc1ccccc1Cl` (stereo unspecified), the TGI in the experiment on HCT-116 colon is more than 100 µM; with UO-31 renal, 34.5 µM; in the experiment with SF-295 CNS, more than 100 µM; with SK-MEL-5 melanoma, 32.9 µM; in the experiment with 786-0 renal, more than 100 µM; with RPMI-8226 leukemia, 54.7 µM. Also, the TGI with SNB-75 CNS was 62.4 µM; with SF-268 CNS, more than 100 µM.

Regarding `COC(=O)Nc1nc2ccccc2c(=O)[nH]1`, the TGI in the experiment with NCI-H226 lung, in the experiment with HCT-116 colon, in the experiment on UO-31 renal, in the experiment with SF-295 CNS, with SK-MEL-5 melanoma and in the experiment on DU-145 prostate was more than 100 µM each time. For the same compound, the TGI in the experiment with 786-0 renal, in the experiment on SNB-75 CNS and in the experiment with SF-268 CNS was more than 100 µM throughout.

With `C=C1CC[C@@H]2C(C)(C)CCC[C@@]2(C)[C@@H]1Cc1cc(O)ccc1O`, the TGI in the experiment on NCI-H226 lung turned out to be 7.09 µM; in the experiment on HCT-116 colon it was 16.8 µM; with UO-31 renal, 5.25 µM; in the experiment on SF-295 CNS, 28.2 µM; in the experiment on SK-MEL-5 melanoma, 19.7 µM; with 786-0 renal, 12 µM. In addition, the results for the TGI in the experiment with RPMI-8226 leukemia, with SNB-75 CNS and with SF-268 CNS were 15.9 µM, 7.14 µM and 12.9 µM, respectively.

In the case of `CS(=O)c1ccc(COP(N)(=O)N(CCCl)CCCl)cc1` (stereo unspecified), the TGI with NCI-H226 lung, with HCT-116 colon, with UO-31 renal, in the experiment with SF-295 CNS, in the experiment with SK-MEL-5 melanoma and in the experiment on 786-0 renal was more than 100 µM each time. Besides, the TGI in the experiment on RPMI-8226 leukemia, in the experiment on SNB-75 CNS and in the experiment with SF-268 CNS was more than 100 µM throughout.

`c1ccc(N=C2c3ccccc3C3=NCCCN32)cc1`: the TGI with NCI-H226 lung was more than 100 µM; in the experiment with HCT-116 colon, more than 100 µM; with UO-31 renal it was more than 100 µM; with SF-295 CNS, more than 100 µM; with SK-MEL-5 melanoma, 76.8 µM; in the experiment on 786-0 renal, more than 100 µM. Besides, the TGI with RPMI-8226 leukemia, in the experiment with SNB-75 CNS and in the experiment on SF-268 CNS was more than 100 µM each time.

Consider `O=[N+]([O-])C1C2C=CC(C2)[C@H]1c1ccccc1Cl` (stereo partly specified), for which the TGI was 92.2 µM with NCI-H226 lung; more than 100 µM in the experiment on HCT-116 colon; 97.7 µM in the experiment with UO-31 renal; more than 100 µM in the experiment on SF-295 CNS; more than 100 µM in the experiment on SK-MEL-5 melanoma; more than 100 µM in the experiment on 786-0 renal. Further, the TGI with RPMI-8226 leukemia is more than 100 µM; in the experiment with SNB-75 CNS, 60.7 µM; with SF-268 CNS, more than 100 µM.

Turning to `CCOC(=O)c1ccc(N2C(=O)/C(=C\OC)c3ccccc3C2=O)cc1`, the TGI with NCI-H226 lung was more than 100 µM; with HCT-116 colon, more than 100 µM; in the experiment with UO-31 renal, 62.8 µM; in the experiment with SF-295 CNS, more than 100 µM; in the experiment with SK-MEL-5 melanoma, more than 100 µM; with 786-0 renal, more than 100 µM. Besides, the TGI in the experiment with RPMI-8226 leukemia, with SNB-75 CNS and with SF-268 CNS was more than 100 µM throughout.

As for `CN(c1ccccc1)C(c1ccccc1)C(O)c1ccccc1` (stereo unspecified), the TGI in the experiment on HCT-116 colon is 33.7 µM; in the experiment with UO-31 renal it was 41.9 µM; in the experiment with SF-295 CNS it was 32 µM; with SK-MEL-5 melanoma, 34.7 µM; in the experiment on 786-0 renal it was 33.8 µM; in the experiment on RPMI-8226 leukemia, 49.3 µM. Besides, the TGI with SNB-75 CNS is 64.4 µM; in the experiment with SF-268 CNS, 42.1 µM.

With `CC(C(=O)Oc1ccc2ccccc2c1-c1c(O)ccc2ccccc12)c1ccccc1` (stereo unspecified), the TGI was 26.5 µM in the experiment with NCI-H226 lung; 25.6 µM with HCT-116 colon; 6.37 µM with UO-31 renal; 25.6 µM with SF-295 CNS; 26.8 µM with SK-MEL-5 melanoma; 29.3 µM with 786-0 renal. This compound registered a TGI in the experiment on RPMI-8226 leukemia of 57.6 µM.

As for `ON=C1CCC(c2ccccc2)CC1` (stereo unspecified), the TGI in the experiment on NCI-H226 lung, in the experiment with HCT-116 colon, in the experiment with UO-31 renal, in the experiment on SF-295 CNS, in the experiment with SK-MEL-5 melanoma and in the experiment on 786-0 renal was more than 100 µM throughout. The TGI in the experiment on SNB-75 CNS and in the experiment on SF-268 CNS was more than 100 µM in each case.
